# Results published in PubChem BioAssay AID320 (DTP/NCI, 2004).
# “And” between values parts separate entries of the source, which are not always exact repeats. Equal entries are not always repeated. Toxic doses and inconclusive results are not listed.
# System: BDF1 mice, P329 reticulum cell sarcoma ip, survival T/C
# Experiment: NCI In Vivo Anticancer Drug Screen. Data for tumor model P329 Reticulum Cell Sarcoma (intraperitoneal) in B6D2F1 (BDF1) mice
# Settings: endpoint: median survival time, higher = longer survival
# Procedure: The antitumor activity of compounds was measured in mice bearing transplantable tumors. Survival or tumor size were measured and the results are expressed as the measurement made in the treated group (T) divided by the measurement made in the vehicle treated control group (C). The tumor model used in this assay is P329 Reticulum Cell Sarcoma (intraperitoneal) in B6D2F1 (BDF1) mice
# [1] = dose: 12.5 mg/kg/injection, schedule: Q01DX010 (sc), vehicle: steriod suspending solution
# [2] = dose: 25.0 mg/kg/injection, schedule: Q01DX010 (sc), vehicle: steriod suspending solution
# [3] = dose: 50.0 mg/kg/injection, schedule: Q01DX010 (sc), vehicle: steriod suspending solution
# [4] = dose: 1.25 mg/kg/injection, schedule: Q01DX010 (ip), vehicle: saline
# [5] = dose: 2.5 mg/kg/injection, schedule: Q01DX010 (ip), vehicle: saline
# [6] = dose: 5.0 mg/kg/injection, schedule: Q01DX010 (ip), vehicle: saline
# [7] = dose: 18.8 mg/kg/injection, schedule: Q01DX010 (ip), vehicle: saline
# [8] = dose: 37.5 mg/kg/injection, schedule: Q01DX010 (ip), vehicle: saline
# [9] = dose: 75.0 mg/kg/injection, schedule: Q01DX010 (ip), vehicle: saline
# [10] = dose: 12.5 mg/kg/injection, schedule: Q01DX010 (ip), vehicle: saline
# [11] = dose: 25.0 mg/kg/injection, schedule: Q01DX010 (ip), vehicle: saline
# [12] = dose: 50.0 mg/kg/injection, schedule: Q01DX010 (ip), vehicle: saline
# [13] = dose: 62.5 micrograms/kg/injection, schedule: Q01DX010 (ip), vehicle: saline
# [14] = dose: 125.0 micrograms/kg/injection, schedule: Q01DX010 (ip), vehicle: saline
# [15] = dose: 250.0 micrograms/kg/injection, schedule: Q01DX010 (ip), vehicle: saline
# [16] = dose: 500.0 micrograms/kg/injection, schedule: Q01DX010 (ip), vehicle: saline
# [17] = dose: 200.0 mg/kg/injection, schedule: Q01DX010 (ip), vehicle: saline
# [18] = dose: 8.0 mg/kg/injection, schedule: Q01DX010 (ip), vehicle: saline
# [19] = dose: 100.0 mg/kg/injection, schedule: Q01DX010 (ip), vehicle: saline
# [20] = dose: 20.0 mg/kg/injection, schedule: Q01DX010 (ip), vehicle: saline
# [21] = dose: 10.0 mg/kg/injection, schedule: Q01DX010 (ip), vehicle: saline
compound,measurement,setting,value
C[C@]12C=CC(=O)C=C1CC[C@@H]1[C@@H]2[C@@H](O)C[C@@]2(C)[C@H]1CC[C@]2(O)C(=O)CO,T/C,[1],100 % of control and 103 % of control
same,T/C,[2],100 % of control
same,T/C,[3],100 % of control
same,T/C,"dose: 100.0 mg/kg/injection, schedule: Q01DX010 (sc), vehicle: steriod suspending solution",100 % of control
Nc1nc2n[nH]nc2c(=O)[nH]1,T/C,"dose: 100.0 mg/kg/injection, schedule: Q01DX010 (ip), vehicle: alkali diluted with saline",153 % of control
same,T/C,"dose: 200.0 mg/kg/injection, schedule: Q01DX010 (ip), vehicle: alkali diluted with saline",150 % of control
Oc1cc(CN(CCCl)CCCl)c(O)cc1CN(CCCl)CCCl,T/C,"dose: 0.63 mg/kg/injection, schedule: Q01DX010 (ip), vehicle: saline",103 % of control and 114 % of control
same,T/C,[4],114 % of control
same,T/C,[5],117 % of control
same,T/C,[6],96 % of control and 107 % of control
CS(=O)(=O)OCCCl,T/C,"dose: 9.4 mg/kg/injection, schedule: Q01DX010 (ip), vehicle: saline",107 % of control
same,T/C,[7],96 % of control and 100 % of control
same,T/C,[8],92 % of control and 107 % of control
same,T/C,[9],92 % of control and 107 % of control
COS(C)(=O)=O,T/C,[10],100 % of control
same,T/C,[11],93 % of control
same,T/C,[12],116 % of control
CN(C)c1nc(N(C)C)nc(N(C)C)n1,T/C,[7],96 % of control and 103 % of control
same,T/C,[8],92 % of control and 100 % of control
same,T/C,[9],92 % of control and 107 % of control
same,T/C,"dose: 150.0 mg/kg/injection, schedule: Q01DX010 (ip), vehicle: saline",107 % of control and 114 % of control
CCn1cnc2c(=S)nc[nH]c21,T/C,"dose: 15.6 mg/kg/injection, schedule: Q01DX010 (ip), vehicle: saline",111 % of control and 114 % of control
same,T/C,"dose: 31.3 mg/kg/injection, schedule: Q01DX010 (ip), vehicle: saline",114 % of control and 123 % of control
same,T/C,"dose: 125.0 mg/kg/injection, schedule: Q01DX010 (ip), vehicle: saline",89 % of control and 100 % of control
O[C@H](CN1CC1)[C@@H](O)CN1CC1,T/C,[13],106 % of control and 121 % of control
same,T/C,[14],123 % of control
same,T/C,[15],167 % of control
same,T/C,[16],166 % of control
O=c1cnn(C2OC(CO)C(O)C2O)c(=O)[nH]1 (stereo not given),T/C,[17],116 % of control
COC(=O)[C@@H]1c2cc3c(c(O)c2[C@@H](OC2OC(C)C(OC)C(C)(OC)C2OC)C[C@]1(C)O)C(=O)c1c(O)cc2c(c1C3=O)O[C@H]1O[C@]2(C)[C@H](O)[C@@H](N(C)C)[C@@H]1O (stereo not given in full),T/C,[13],100 % of control
same,T/C,[14],93 % of control and 100 % of control
same,T/C,[15],90 % of control and 100 % of control
same,T/C,[16],93 % of control and 100 % of control
CC(CCC(C)OS(C)(=O)=O)OS(C)(=O)=O (stereo not given),T/C,"dose: 2.0 mg/kg/injection, schedule: Q01DX010 (ip), vehicle: saline",100 % of control and 107 % of control
same,T/C,"dose: 4.0 mg/kg/injection, schedule: Q01DX010 (ip), vehicle: saline",103 % of control and 107 % of control
same,T/C,[18],114 % of control and 115 % of control
CC/C(=C(/CC)c1ccc(O)cc1)c1ccc(O)cc1,T/C,[10],107 % of control
same,T/C,[11],96 % of control and 107 % of control
same,T/C,[12],100 % of control and 103 % of control
same,T/C,[19],88 % of control
COc1ccc2c(c1OC)C(=O)O[C@@H]2[C@H]1c2c(cc3c(c2OC)OCO3)CCN1C,T/C,"dose: 62.5 mg/kg/injection, schedule: Q01DX010 (ip), vehicle: saline",92 % of control
COc1cc(-c2ccc(Nc3ccccc3C(=O)O)c(OC)c2)ccc1Nc1ccccc1C(=O)O,T/C,[10],100 % of control
same,T/C,[11],103 % of control
same,T/C,[12],110 % of control
same,T/C,[19],110 % of control
c1ccc(CNc2ncnc3[nH]ncc23)cc1,T/C,[18],103 % of control and 115 % of control
same,T/C,"dose: 16.0 mg/kg/injection, schedule: Q01DX010 (ip), vehicle: saline",107 % of control
O=c1[nH]cc(F)c(=O)[nH]1,T/C,[6],123 % of control
same,T/C,[20],161 % of control and 162 % of control
S=P(N1CCOCC1)(N1CC1)N1CC1,T/C,[5],100 % of control
same,T/C,[6],100 % of control and 107 % of control
same,T/C,[21],100 % of control and 119 % of control
same,T/C,[20],107 % of control and 115 % of control
C[C@H]1C(=O)O[C@@H]2CCN3CC=C(COC(=O)[C@](C)(O)[C@@]1(C)O)[C@H]23,T/C,"dose: 3.13 mg/kg/injection, schedule: Q01DX010 (ip), vehicle: saline",106 % of control and 107 % of control
same,T/C,"dose: 6.25 mg/kg/injection, schedule: Q01DX010 (ip), vehicle: saline",103 % of control and 107 % of control
same,T/C,[10],103 % of control
same,T/C,[11],100 % of control and 103 % of control
Cc1cc(N(CCCl)CCCl)ccc1N=Nc1ccccc1C(=O)O,T/C,[6],107 % of control and 114 % of control
same,T/C,[21],114 % of control
CS(=O)(=O)OCC(O)C(O)C(O)C(O)COS(C)(=O)=O (stereo not given),T/C,[11],100 % of control
same,T/C,[12],100 % of control and 103 % of control
same,T/C,[19],107 % of control
same,T/C,[17],121 % of control and 123 % of control
N#[N+]c1cnc([O-])[nH]c1=O,T/C,[4],122 % of control
same,T/C,[5],103 % of control
same,T/C,[6],110 % of control
same,T/C,[21],117 % of control
C#CCN(C)Cc1ccccc1,T/C,[11],100 % of control
same,T/C,[12],100 % of control
same,T/C,[19],93 % of control
same,T/C,[17],106 % of control
Cn1c(N)nc2nc[nH]c2c1=S,T/C,[21],100 % of control
same,T/C,[20],106 % of control
same,T/C,"dose: 40.0 mg/kg/injection, schedule: Q01DX010 (ip), vehicle: saline",100 % of control
same,T/C,"dose: 80.0 mg/kg/injection, schedule: Q01DX010 (ip), vehicle: saline",106 % of control
CC(=O)O[C@]1(C(C)=O)CC[C@H]2[C@@H]3C[C@H](C)C4=CC(=O)C=C[C@]4(C)[C@@]3(F)[C@@H](O)C[C@@]21C,T/C,[1],93 % of control
same,T/C,[2],93 % of control
same,T/C,[3],93 % of control
CC(=O)Nc1ccc2nc3ccc(NC(C)=O)cc3[n+](-c3ccccc3)c2c1,T/C,[11],121 % of control
same,T/C,[12],114 % of control
N#CCSc1ncnc2nc[nH]c12,T/C,"dose: 15.0 mg/kg/injection, schedule: Q01DX010 (ip), vehicle: saline",150 % of control
same,T/C,"dose: 30.0 mg/kg/injection, schedule: Q01DX010 (ip), vehicle: saline",115 % of control
same,T/C,"dose: 120.0 mg/kg/injection, schedule: Q01DX010 (ip), vehicle: saline",173 % of control
CS(=O)(=O)OCCC(=O)N1CCN(C(=O)CCOS(C)(=O)=O)CC1,T/C,[11],117 % of control
same,T/C,[17],89 % of control
CC[n+]1c(-c2ccccc2)c2cc(N)ccc2c2ccc(N)cc21,T/C,[5],114 % of control
same,T/C,[20],107 % of control
CN(Cc1cnc2nc(N)nc(N)c2n1)c1ccc(C(=O)N[C@@H](CCC(=O)O)C(=O)O)cc1,T/C,"dose: 0.19 mg/kg/injection, schedule: Q01DX010 (ip), vehicle: other",101 % of control and 106 % of control
same,T/C,"dose: 0.38 mg/kg/injection, schedule: Q01DX010 (ip), vehicle: other",100 % of control and 110 % of control and 116 % of control
same,T/C,"dose: 0.75 mg/kg/injection, schedule: Q01DX010 (ip), vehicle: other",114 % of control
O=C(Nc1ccc(C2=NCCN2)cc1)c1ccc(C(=O)Nc2ccc(C3=NCCN3)cc2)c([N+](=O)[O-])c1,T/C,"dose: 6.0 mg/kg/injection, schedule: Q01DX010 (ip), vehicle: saline",153 % of control and 175 % of control
same,T/C,[18],188 % of control and 212 % of control
same,T/C,"dose: 18.0 mg/kg/injection, schedule: Q01DX010 (ip), vehicle: saline",91 % of control
CCN(CC)CCNc1ccc(C)c2sc3ccccc3c(=O)c12,T/C,[11],111 % of control and 114 % of control
same,T/C,[19],115 % of control
